Results taken from patent US20250296971A1, “GASTRIC INHIBITORY PEPTIDE RECEPTOR LIGANDS” (priority 2021, published 2025).
Read-outs that look alike come from different tables or passages of the source. *1 amine or outer side, *2 acyl side, *3 side chain or, on linkers, in order; H or OH if unused. Where a SMILES comes first, the peptide text is derived from it. Bridges are numbered along the chain shown (N, C = ends). [ ]: non-standard residue; d: D form. The star is where a group is joined. X5 = NC(=O)[C@H](CCCCNC(=O)CN1CCN(CC(=O)O)CCN(CC(=O)O)CCN(CC(=O)O)CC1)NC(=O)CCC(=O)NCCCOCCOCCOCCCN*; DOTA(Ga) = O=C1CN2CCN3CCN(CC(=O)*)CCN(CC2)CC(=O)[O][Ga]([O]1)[O]C(=O)C3; NH(1-deoxy-D-glucityl) = OC[C@@H](O)[C@@H](O)[C@H](O)[C@@H](O)CN*; Trp(5-Cl) = N[C@@H](Cc1c[nH]c2ccc(Cl)cc12)C(=O)O; Propanoyl(3-(4-F-phenyl)) = O=C(CCc1ccc(F)cc1)*; Pyridine(2,6-diCH2) = c1cc(C[*:1])nc(C[*:2])c1; Nip(3R) = O=C([C@@H]1CCCN([*:1])C1)[*:2]; 1Nal = N[C@@H](Cc1cccc2ccccc12)C(=O)O; mXylylene = c1cc(C[*:1])cc(C[*:2])c1; Glutaryl = O=C(CCCC(=O)[*:2])[*:1]; Hydrocinnamoyl = O=C(CCc1ccccc1)*; Cya = N[C@@H](CS(=O)(=O)O)C(=O)O; Hyp = O=C(O)[C@@H]1C[C@@H](O)CN1; X1 = O=C(CN1CCC(N[*:1])CC1)[*:2]; Cha = N[C@@H](CC1CCCCC1)C(=O)O; NMeC = CN[C@@H](CS)C(=O)O; Api = NC1(C(=O)O)CCNCC1; Thp = NC1(C(=O)O)CCOCC1; Aib = CC(C)(N)C(=O)O

Target: T1, GIPR (CHO-K1-hGIPR cells) (Homo sapiens, UniProt P48546)
T1 construct: host or cells: CHO-K1
T1 sequence (P48546 22-466): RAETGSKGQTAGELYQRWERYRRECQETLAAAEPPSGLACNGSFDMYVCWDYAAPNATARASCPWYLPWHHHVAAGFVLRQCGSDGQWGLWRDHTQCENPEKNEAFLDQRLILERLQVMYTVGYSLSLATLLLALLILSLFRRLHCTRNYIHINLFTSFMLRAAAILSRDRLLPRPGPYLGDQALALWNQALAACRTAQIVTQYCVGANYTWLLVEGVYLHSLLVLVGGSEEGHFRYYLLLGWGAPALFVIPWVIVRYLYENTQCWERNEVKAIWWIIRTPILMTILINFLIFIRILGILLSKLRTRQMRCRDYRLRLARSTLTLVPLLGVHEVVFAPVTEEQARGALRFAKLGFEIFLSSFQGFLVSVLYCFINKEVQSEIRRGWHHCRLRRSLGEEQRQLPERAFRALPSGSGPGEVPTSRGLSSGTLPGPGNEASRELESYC
Assay: FACS binding assay
Conditions: read-out: pIC50 Category (converted)
Procedure, shortened: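 Peptide binding read by flow cytometry as APC-channel median fluorescence, fitted with a four-parameter logistic to yield EC50 or IC50. Cells were hGIPR-transfected CHO-K1 in PBS with 1% FCS, detected with 1 μg/mL APC-streptavidin, 30 min on ice.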

[1] = competition with 20 nM GIP-057, 4° C., 1 hour
[2] = competition with 20 nM GIP-057, 4° C. for 1 hour

Row | Structure (SMILES) | IC50 [1] [nM] | IC50 [2] [nM]
1 | CC[C@H](C)[C@@H]1NC(=O)[C@H](CC(C)C)NC(=O)C(C)(C)NC(=O)[C@@H](NC(=O)[C@@H](CC(C)C)NC(=O)[C@H](CCC(=O)O)NC(=O)[C@@H]2CCCN2C(=O)[C@H](Cc2c[nH]c3ccccc23)NC(=O)[C@H](Cc2c[nH]c3ccccc23)NC(=O)[C@H](CC(=O)O)NC(=O)CCc2ccc(F)cc2)CSCc2cccc(c2)CSC[C@@H](C(=O)NCCCOCCOCCOCCCNC(=O)CCC(=O)N[C@@H](CCCCNC(=O)CN2CCN(CC(=O)O)CCN(CC(=O)O)CCN(CC(=O)O)CC2)C(N)=O)NC1=O [GIP-136, 4FPhp-Asp-Trp-Trp-Pro-Glu-leu-[Cys(3MeBn)-Aib-Leu-Ile-Cys]-Ttds-Lys(DOTA)-NH2] ({Propanoyl(3-(4-F-phenyl))}-DWWPE[dL]C[Aib]LIC-X5; linker 7-11 via mXylylene) | 10 to 79.4 | 
2 | CC[C@H](C)[C@@H]1NC(=O)[C@H](CC(C)C)NC(=O)C2(CCN(C(=O)CN3CCN4CCN5CCN(CC3)CC(=O)[O][Ga]([O]C(=O)C5)[O]C(=O)C4)CC2)NC(=O)[C@@H](NC(=O)[C@@H](CC(C)C)NC(=O)[C@H](CCC(=O)O)NC(=O)[C@@H]2C[C@@H](O)CN2C(=O)[C@H](Cc2c[nH]c3ccc(Cl)cc23)NC(=O)[C@H](Cc2c[nH]c3ccccc23)NC(=O)[C@H](CC(=O)O)NC(=O)CCCC(=O)NC[C@H](O)[C@@H](O)[C@H](O)[C@H](O)CO)CSCc2cccc(n2)CSC[C@@H](C(=O)NC2CCN(CC(=O)N[C@H](CCC(=O)NC[C@H](O)[C@@H](O)[C@H](O)[C@H](O)CO)C(N)=O)CC2)NC1=O [GIP-070, AGLU-Glutar-Asp-Trp-5Clw-Hyp-Glu-leu-[Cys(2Lut)-Apc(GaDOTA)-Leu-Ile-Cys]-APAc-glu(AGLU)-NH2] ({NH(1-deoxy-D-glucityl)-Glutaryl}-DW[Trp(5-Cl)][Hyp]E[dL]C[Api](DOTA(Ga))LIC[X1][dE](NH(1-deoxy-D-glucityl))-NH2; linker 7-11 via Pyridine(2,6-diCH2)) | < 10 | 
3 | CC[C@H](C)[C@@H]1NC(=O)[C@H](CC(C)C)NC(=O)C(C)(C)NC(=O)[C@@H](NC(=O)[C@H](CC(C)C)NC(=O)[C@H](CCC(=O)O)NC(=O)[C@@H]2CCCN(C(=O)[C@H](Cc3cccc4ccccc34)NC(=O)[C@H](Cc3c[nH]c4ccccc34)NC(=O)[C@H](CC(=O)O)NC(C)=O)C2)CSCc2cccc(c2)CSC[C@@H](C(N)=O)NC1=O [GIP-342, Ac-Asp-Trp-1Ni-Rni-Glu-Leu-[Cys(3MeBn)-Aib-Leu-Ile-Cys]-NH2] (Ac-DW[1Nal][Nip(3R)]ELC[Aib]LIC-NH2; linker 7-11 via mXylylene) |  | > 1000
4 | CCOCCOCCOCCOCCOCCOCCOCCOCCOCCOCCOCCOCCOCCOCCOCCOCCOCCOCCOCCOCCOCCOCCOCCOCCOCCOCCOCCOCCOCCOCCOCCOCCOCCOCCOCCOCCOCC(=O)NC1CCN(CC(=O)N[C@@H](CC(=O)O)C(=O)N[C@@H](Cc2c[nH]c3ccccc23)C(=O)N[C@@H](Cc2c[nH]c3ccc(Cl)cc23)C(=O)N2C[C@H](O)C[C@H]2C(=O)N[C@@H](CCC(=O)O)C(=O)N[C@H](CC(C)C)C(=O)N[C@H]2CSCc3cccc(n3)CSC[C@@H](C(=O)NC3CCN(CC(=O)N[C@H](CCC(=O)NC[C@H](O)[C@@H](O)[C@H](O)[C@H](O)CO)C(N)=O)CC3)NC(=O)[C@H]([C@@H](C)CC)NC(=O)[C@H](CC(C)C)NC(=O)C3(CCN(C(=O)CN4CCN(CC(=O)O)CCN(CC(=O)O)CCN(CC(=O)O)CC4)CC3)NC2=O)CC1 [GIP-041, MeO36PEG-APAc-Asp-Trp-5Clw-Hyp-Glu-leu-[Cys(2Lut)-Apc(DOTA)-Leu-Ile-Cys]-APAc-glu(AGLU)-NH2] | 10 to 79.4 | 
5 | CC[C@H](C)[C@@H]1NC(=O)[C@H](CC(C)C)NC(=O)C(C)(C)NC(=O)[C@@H](NC(=O)[C@H](CC(C)C)NC(=O)[C@H](CCC(=O)O)NC(=O)[C@@H]2CCCN2C(=O)[C@H](Cc2c[nH]c3ccccc23)NC(=O)[C@H](Cc2c[nH]c3ccccc23)NC(=O)[C@H](CC(=O)O)NC(C)=O)CSCc2cccc(c2)CSC[C@@H](C(=O)NCCCOCCOCCOCCCNC(=O)CCC(=O)N[C@@H](CCCCNC(=O)CN2CCN(CC(=O)O)CCN(CC(=O)O)CCN(CC(=O)O)CC2)C(N)=O)N(C)C1=O [GIP-292, Ac-Asp-Trp-Trp-Pro-Glu-Leu-[Cys(3MeBn)-Aib-Leu-Ile-Nmc]-Ttds-Lys(DOTA)-NH2] (Ac-DWWPELC[Aib]LI[NMeC]-X5; linker 7-11 via mXylylene) |  | > 1000
6 | CC[C@H](C)[C@@H]1NC(=O)[C@H](CC(C)C)NC(=O)C(C)(C)NC(=O)[C@@H](NC(=O)[C@@H](CC(C)C)NC(=O)[C@H](CCC(=O)O)NC(=O)[C@@H]2CCCN2C(=O)[C@H](Cc2c[nH]c3ccccc23)NC(=O)[C@H](Cc2c[nH]c3ccccc23)NC(=O)[C@H](CC(=O)O)NC(=O)CCc2ccccc2)CSCc2cccc(c2)CSC[C@@H](C(=O)NCCCOCCOCCOCCCNC(=O)CCC(=O)N[C@@H](CCCCNC(=O)CN2CCN(CC(=O)O)CCN(CC(=O)O)CCN(CC(=O)O)CC2)C(N)=O)NC1=O [GIP-135, Php-Asp-Trp-Trp-Pro-Glu-leu-[Cys(3MeBn)-Aib-Leu-Ile-Cys]-Ttds-Lys(DOTA)-NH2] (Hydrocinnamoyl-DWWPE[dL]C[Aib]LIC-X5; linker 7-11 via mXylylene) | 10 to 79.4 | 
7 | CC(=O)N[C@@H](CC(=O)O)C(=O)N[C@@H](Cc1c[nH]c2ccccc12)C(=O)N[C@@H](Cc1c[nH]c2ccccc12)C(=O)N1CCC[C@H]1C(=O)N[C@@H](CCC(=O)O)C(=O)N[C@@H](CC(C)C)C(=O)N[C@H]1CSCc2cccc(c2)CSC[C@@H](C(=O)NCCCOCCOCCOCCCNC(=O)CCC(=O)N[C@@H](CCCCNC(=O)CN2CCN(CC(=O)O)CCN(CC(=O)O)CCN(CC(=O)O)CC2)C(N)=O)NC(=O)[C@H](CC2CCCCC2)NC(=O)[C@H](CC(C)C)NC(=O)C(C)(C)NC1=O [GIP-278, Ac-Asp-Trp-Trp-Pro-Glu-Leu-[Cys(3MeBn)-Aib-Leu-Cha-Cys]-Ttds-Lys(DOTA)-NH2] (Ac-DWWPELC[Aib]L[Cha]C-X5; linker 7-11 via mXylylene) |  | 100 to 794

Next, values leading:

Row | IC50 [1] [nM] | IC50 [2] [nM] | Structure (SMILES)
8 | < 10 |  | CC[C@H](C)[C@@H]1NC(=O)[C@H](CCCNC(=N)N)NC(=O)C2(CCOCC2)NC(=O)[C@@H](NC(=O)[C@@H](CC(C)C)NC(=O)[C@H](CCC(=O)O)NC(=O)[C@@H]2C[C@@H](O)CN2C(=O)[C@H](Cc2c[nH]c3ccc(Cl)cc23)NC(=O)[C@H](Cc2c[nH]c3ccccc23)NC(=O)[C@H](CC(=O)O)NC(C)=O)CSCc2cccc(n2)CSC[C@@H](C(N)=O)NC1=O [GIP-230, Ac-Asp-Trp-5Clw-Hyp-Glu-leu-[Cys(2Lut)-Thp-Arg-Ile-Cys]-NH2] (Ac-DW[Trp(5-Cl)][Hyp]E[dL]C[Thp]RIC-NH2; linker 7-11 via Pyridine(2,6-diCH2))
9 | < 10 |  | CC[C@H](C)[C@@H]1NC(=O)[C@H](CC(C)C)NC(=O)C2(CCOCC2)NC(=O)[C@@H](NC(=O)[C@@H](CC(C)C)NC(=O)[C@H](CCC(=O)O)NC(=O)[C@@H]2C[C@@H](O)CN2C(=O)[C@H](Cc2c[nH]c3ccc(Cl)cc23)NC(=O)[C@H](Cc2c[nH]c3ccccc23)NC(=O)[C@H](CS(=O)(=O)O)NC(C)=O)CSCc2cccc(n2)CSC[C@@H](C(N)=O)NC1=O [GIP-189, Ac-Cya-Trp-5Clw-Hyp-Glu-leu-[Cys(2Lut)-Thp-Leu-Ile-Cys]-NH2] (Ac-[Cya]W[Trp(5-Cl)][Hyp]E[dL]C[Thp]LIC-NH2; linker 7-11 via Pyridine(2,6-diCH2))
10 |  | 100 to 794 | CC(=O)N[C@@H](CC(=O)O)C(=O)N[C@@H](Cc1c[nH]c2ccccc12)C(=O)N[C@@H](Cc1c[nH]c2ccc(Cl)cc12)C(=O)N1C[C@H](O)C[C@H]1C(=O)N[C@@H](CCC(=O)O)C(=O)N[C@H](CC(C)C)C(=O)N[C@H]1CSCc2cccc(n2)CSC[C@@H](C(N)=O)NC(=O)[C@H](CO)NC(=O)[C@H](CC(C)C)NC(=O)C2(CCOCC2)NC1=O [GIP-322, Ac-Asp-Trp-5Clw-Hyp-Glu-leu-[Cys(2Lut)-Thp-Leu-Ser-Cys]-NH2] (Ac-DW[Trp(5-Cl)][Hyp]E[dL]C[Thp]LSC-NH2; linker 7-11 via Pyridine(2,6-diCH2))
11 | < 10 |  | CC[C@H](C)[C@@H]1NC(=O)[C@H](CC(C)C)NC(=O)C2(CCOCC2)NC(=O)[C@@H](NC(=O)[C@@H](CC(C)C)NC(=O)[C@H](CC(=O)O)NC(=O)[C@@H]2C[C@@H](O)CN2C(=O)[C@H](Cc2c[nH]c3ccc(Cl)cc23)NC(=O)[C@H](Cc2c[nH]c3ccccc23)NC(=O)[C@H](CC(=O)O)NC(C)=O)CSCc2cccc(n2)CSC[C@@H](C(N)=O)NC1=O [GIP-192, Ac-Asp-Trp-5Clw-Hyp-Asp-leu-[Cys(2Lut)-Thp-Leu-Ile-Cys]-NH2] (Ac-DW[Trp(5-Cl)][Hyp]D[dL]C[Thp]LIC-NH2; linker 7-11 via Pyridine(2,6-diCH2))
12 |  | 10 to 79.4 | CC(=O)N[C@@H](CC(=O)O)C(=O)N[C@@H](Cc1c[nH]c2ccccc12)C(=O)N[C@@H](Cc1c[nH]c2ccc(Cl)cc12)C(=O)N1C[C@H](O)C[C@H]1C(=O)N[C@@H](CCC(=O)O)C(=O)N[C@H](CC(C)C)C(=O)N[C@H]1CSCc2cccc(n2)CSC[C@@H](C(N)=O)NC(=O)[C@H](Cc2ccccc2)NC(=O)[C@H](CC(C)C)NC(=O)C2(CCOCC2)NC1=O [GIP-266, Ac-Asp-Trp-5Clw-Hyp-Glu-leu-[Cys(2Lut)-Thp-Leu-Phe-Cys]-NH2] (Ac-DW[Trp(5-Cl)][Hyp]E[dL]C[Thp]LFC-NH2; linker 7-11 via Pyridine(2,6-diCH2))
